Where two headings read alike, the source gives them in different places.
Legend:
Bacillus cereus = test: Inhibition of bacterial growth, filter paper technique; assay type: cell-based
Experimental: (§1) Schleider and Schuell #740-E filter paper (12.7 mm diameter) was dipped in the dye solution, touched to the side of the beaker to removed excess dye, and placed in the center of the inoculated agar plates (prepared in (B) above). The plates were then incubated at 26° C. for […]. The plates were then examined to determine if bacterial growth had been affected by the dye-containing filter paper. With certain dyes bacterial growth was inhibited in a circular area around the filter paper. With other dyes no such area of inhibition was observed.
(§2) Cultures of various gram-negative and gram-positive bacteria were prepared in nutrient and Tryptic Soy Agar and plates were poured as described in Example 1. Methanolic solutions of cyanine dyes were prepared at 10^-3 molar and applied to the plates using the filter paper technique described in Example 1. Control plates were prepared in which the filter paper contained methanol or a 0.2 molar aqueous solution of phenol. The plates were then incubated at 26° C. or 37° C. for forty-eight hours.

[1] = tested on: Escherichia coli, Strain B; test: as above; assay type: cell-based; settings: Table VIII, 37° C./48 hrs; for Area of Inhibition (diameter): 10^-3 molar, Gram -
Experimental: as §1, §2

Micrococcus flavus = test: as above; assay type: cell-based
Experimental: as §1, §2

Bacillus subtilis = test: as above; assay type: cell-based; settings: for zone of inhibition at 1000 µM: Table VIII, 10^-3 molar, Gram +, 26° C./48 hrs, read-out: Area of Inhibition (diameter)
Experimental: as §1, §2

Proteus vulgaris = test: as above; assay type: cell-based; settings: Table VIII, 37° C./48 hrs; for Area of Inhibition (diameter): 10^-3 molar, Gram -
Experimental: as §1, §2

Micrococus luteus = test: as above; assay type: cell-based
Experimental: as §1, §2

Alcaligenes faecalis = test: as above; assay type: cell-based; settings: for Area of Inhibition (diameter): Table VIII, 10^-3 molar, Gram -, 37° C./48 hrs
Experimental: as §1, §2

Bacillus megaterium = test: as above; assay type: cell-based; settings: Table VIII, Tryptic Soy, 37° C./48 hrs
Experimental: as §1, §2

Enterobacter aerogenes = test: as above; assay type: cell-based; settings: Table VIII, 37° C./48 hrs; for Area of Inhibition (diameter): 10^-3 molar, Gram -
Experimental: as §1, §2

[2] = tested on: Bacillus pumilus strain K-1; test: Inhibition of bacterial growth, filter paper on inoculated agar plates; assay type: cell-based
Experimental: Nutrient broth was prepared by mixing 8 grams of BACTO dehydrated nutrient broth per liter of distilled water. […] Samples of the nutrient broth were then inoculated with Bacillus pumilus strain K-1 culture. […]
Nutrient agar was prepared by mixing 23 grams of BACTO nutrient agar per liter of distilled water. The nutrient agar was sterilized in the same way as the nutrient broth. After it has cooled to about 45° C. 250 ml of the nutrient agar solution was aeseptically inoculated with 5 ml of the Bacillus pumilus, K-1 culture prepared in (A), above. Plates of the inoculated nutrient agar were then poured and allowed to harden.
[…] To minimize possible photocatalyzed reactions of the dyes, all preparations were performed under yellow lights and all incubations were performed in the dark.
Schleider and Schuell #740-E filter paper (12.7 mm diameter) was dipped in the dye solution, touched to the side of the beaker to removed excess dye, and placed in the center of the inoculated agar plates (prepared in (B) above). […] The plates were then examined to determine if bacterial growth had been affected by the dye-containing filter paper. […]
Control plates were prepared in which the filter paper contained methanol or a 0.2 molar aqueous solution of phenol. […]

Bacillus pumilus (K-1) = tested on: Bacillus pumilus (K-1)
Experimental: This can be accomplished by contacting a given concentration of the dye with the cells, removing the cells from the dye solution and then comparing the optical density (at λmax) of the remaining dye solution with a control containing the original concentration of the dye. The percentage decrease in optical density indicates the percentage of dye which has been bound to the cells.
The culture was collected by centrifugation at 5,000×g. for 10 minutes, and the resultant pellet was washed several times in cold 0.05 M potassium phosphate buffer, pH 7.0. The pellet was resuspended in the buffer solution to a final optical density of 1.0 at 620 nm as measured with a Bausch and Lomb Spectronic 20.
One-tenth ml of dye solution (1 mg/ml in methanol) was added to a tube containing 5 ml of cell suspension described above and a control tube containing 0.05 M potassium phosphate buffer, pH 7.0. All tubes were well agitated using a Vari-Whirl Mixer (Will Scientific Co.) and then centrifuged at 10,000×g. for 10 minutes.
The percent binding of dye to the cells for each dye, was determined by comparison of the density at λmax of the control supernatant sample with the density at λmax of the supernatant of the cell sample.

[3] = not told
[4] = Oxidation potential (Eox) of the dye; assay type: physicochemical; settings: Tables I, II, V, VI
Sea Urchin Eggs = test: Inhibition of cell division in fertilized sea urchin eggs; assay type: cell-based; settings: arbitrary scale 0 to 5, 5 most active; dye 10^-5 to 10^-6 molar, 60 minutes after fertilization
Experimental: To suspensions in filtered sea water of fertilized sea urchin eggs there was added, three minutes after fertilization, methanolic solutions of the dyes in an amount sufficient to yield a final concentration of dye of between 10^-5 and 10^-6 molar. The final concentration of methanol was, at a maximum 1×10^-4 molar. The eggs were visually observed at 60 minutes after fertilization to determine if cell division and the formation of mitotic apparatus had been inhibited. A rating was assigned based on the concentration of dye required to inhibit cell division and synthesis of DNA.

[5] = Table VIII, 10^-3 molar, Gram +, 26° C./48 hrs
[6] = 48 h, read-out: Area of Inhibition (diameter), control
[7] = Bacillus pumilus, K1, read-out: Diameter of Inhibition

## CCN1C(=CC=CC=Cc2oc3ccccc3[n+]2CC)Oc2ccccc21 [Dye 21]
Bacillus cereus; Bacillus cereus, Table VIII, 10^-3 molar, Gram +, 26° C./48 hrs, read-out: Area of Inhibition (diameter)
  zone of inhibition at 1000 µM: 14 mm
[1]
  Area of Inhibition (diameter): No
Micrococcus flavus; Micrococcus flavus, Table VIII, 10^-3 molar, Gram +, 26° C./48 hrs, read-out: Area of Inhibition (diameter)
  zone of inhibition at 1000 µM: 18 mm
Bacillus subtilis
  zone of inhibition at 1000 µM: 16 mm
Proteus vulgaris
  Area of Inhibition (diameter): No
Micrococus luteus; Table VIII, 10^-3 molar, Gram +, 26° C./48 hrs, read-out: Area of Inhibition (diameter)
  zone of inhibition at 1000 µM: 14 mm
Alcaligenes faecalis
  Area of Inhibition (diameter): No
Bacillus megaterium; Priestia megaterium, 10^-3 molar, Gram +, read-out: Area of Inhibition (diameter)
  zone of inhibition at 1000 µM: 18 mm
Enterobacter aerogenes
  Area of Inhibition (diameter): No
[2]
  Activity Rating: 66
[2]; Bacillus pumilus, K1, 48 h, Table VIII, 10^-3 molar, Nutrient, 37° C./48 hrs, read-out: Area of Inhibition (diameter)
  zone of inhibition at 1000 µM: 21 mm
[2]; Bacillus pumilus, K1, Table IX, 10^-3 M, read-out: Diameter of Inhibition
  zone of inhibition at 1000 µM: 21 mm
Bacillus pumilus (K-1)
  % Bound: 99.4%
[3]
  ER: -.83
  reduction potential (ER): -0.83 volts

## Cn1c(-c2ccccc2)c(C=CC=C2C(c3ccccc3)=[N+](C)c3ccccc32)c2ccccc21 [Dye 33]
[4]
  Eox: > +1.00
Sea Urchin Eggs
  Sea Urchin Eggs Activity: 0
Bacillus cereus; [5]
  Area of Inhibition (diameter): No
[1]
  Area of Inhibition (diameter): No
Micrococcus flavus; [5]
  Area of Inhibition (diameter): No
Bacillus subtilis
  zone of inhibition at 1000 µM: 13 mm
Proteus vulgaris
  Area of Inhibition (diameter): No
Micrococus luteus; [5]
  Area of Inhibition (diameter): Slight
Alcaligenes faecalis
  Area of Inhibition (diameter): No
Bacillus megaterium; 10^-3 molar, Gram +
  Area of Inhibition (diameter): No
Enterobacter aerogenes
  Area of Inhibition (diameter): No
[2]
  Activity Rating: 0
[2]; Table I, 10^-4 molar, 26° C., fifty hours, dark
  Diameter of Inhibition: None
[2]; Table II, 10^-4 molar, 26° C., forty-eight hours
  Diameter of Inhibition: None
[2]; Table IX, 10^-3 M
  Diameter of Inhibition: None
[2]; Table IX, 10^-4 M
  Diameter of Inhibition: None
[2]; Table VIII, 10^-3 molar, Nutrient, 37° C./48 hrs
  Area of Inhibition (diameter): No
Bacillus pumilus (K-1)
  % Bound: 83.7%
[3]
  reduction potential (ER): -0.20 volts

## Oc1ccccc1 [Phenol, reference compound]
Bacillus cereus; Bacillus cereus, 48 h, read-out: Area of Inhibition (diameter), control
  zone of inhibition at 200000 µM: 14 mm
[1]; 0.2 M phenol
  Area of Inhibition (diameter), control: No
Micrococcus flavus; Micrococcus flavus, 48 h, read-out: Area of Inhibition (diameter), control
  zone of inhibition at 200000 µM: 16 mm
Bacillus subtilis; [6]
  zone of inhibition at 200000 µM: 13 mm
Proteus vulgaris; 0.2 M phenol
  Area of Inhibition (diameter), control: No
Micrococus luteus; [6]
  zone of inhibition at 200000 µM: 15 mm
Alcaligenes faecalis; Alcaligenes faecalis, 48 h, read-out: Area of Inhibition (diameter), control
  zone of inhibition at 200000 µM: 15 mm
Bacillus megaterium; 0.2 M phenol
  Area of Inhibition (diameter), control: Slight
Enterobacter aerogenes; 0.2 M phenol
  Area of Inhibition (diameter), control: No
[2]; Bacillus pumilus, K1, 48 h, read-out: Area of Inhibition (diameter), control
  zone of inhibition at 200000 µM: 22 mm
[2]; [7]
  zone of inhibition at 53000 µM: 18 mm
  zone of inhibition at 106000 µM: 22 mm
  zone of inhibition at 213000 µM: 26 mm
